Square brackets hold non-standard residues; d marks the D form. Peptide text beside a SMILES is read from it. * marks the point of attachment. Daunorubicin(13-NOCH2CO) = COc1cccc2c1C(=O)c1c(O)c3c(c(O)c1C2=O)C[C@@](O)(C(C)=NOCC(=O)*)C[C@@H]3O[C@H]1C[C@H](N)[C@H](O)[C@H](C)O1; Nle = CCCC[C@H](N)C(=O)O
Tests used:
[1] = tested on: B16 murine melanoma cell line; test: In vitro antiproliferative activity, MTT assay; assay type: cell-based, mouse; settings: ratio of IC50 values of free Dau and conjugate
Source text: (§1) The following cell cultures were used for the biological evaluation of the synthetic melanoma-specific peptide–drug (Dau–α-MSH) conjugates: A2058 (human skin melanoma, CVCL_1059), M24 (human metastatic skin melanoma, CVCL_D032), OCM-1 (human ocular choroidal melanoma-1, CVCL_6934), OCM-3 (human ocular choroidal melanoma-3, CVCL_6937), WM983A (human metastatic skin melanoma, CVCL_6808), WM983B (human metastatic skin melanoma CVCL_6809), SK-MEL-202 (human skin melanoma, ATCC HTB-68) and B16 (mouse melanoma, ATCC: CRL-6475). Cells were maintained in RPMI-1640 (Lonza, Basel, Switzerland), supplied with 10% FBS (fetal bovine serum; BioSera, Nuaille, France), L-glutamine, and 1% penicillin–streptomycin (from 10 000 units penicillin and 10 mg streptomycin/mL, Gibco, Dublin, Ireland) at 37 °C in a 5% CO2 atmosphere. No mycoplasma contamination was detected in the cell cultures.
(§2) The in vitro cytostatic effect of Dau–α-MSH conjugates was determined by two different assays. The full-length Dau–α-MSH conjugates were investigated by MTT assay using human and murine melanoma cell cultures. For determination of the cytostatic effect of these conjugates, the cells were treated with the compounds at 0.8–100 μM concentration range dissolved in the corresponding serum-free media for 24 h. After incubation, the treating solutions were removed, the cells were washed two times with serum-free medium and cultured for 48 h in the appropriate serum-containing cell culture medium. On the fourth day, the MTT assay was carried out to determine the IC50 values of the compounds. IC50 is the concentration that inhibits cell proliferation by 50%. Nonlinear regression analysis was performed with Prism 6 software (GraphPad, La Jolla, CA, USA) to generate sigmoidal dose–response curves, from which the 50% inhibitory concentration (IC50) values of the compounds were calculated and presented as micromolar (µM) units. The experiments were done in triplicate, and each experiment was repeated twice.

[2] = tested on: A2058 human melanoma cell line; test: In vitro antiproliferative activity, MTT assay; assay type: cell-based; settings: ratio of IC50 values of free Dau and conjugate
Source text: as §1, §2

[3] = tested on: M24 human melanoma cell line; test: In vitro antiproliferative activity, MTT assay; assay type: cell-based; settings: ratio of IC50 values of free Dau and conjugate
Source text: as §1, §2

[4] = tested on: WM983B human melanoma cell line; test: In vitro antiproliferative activity, MTT assay; assay type: cell-based; settings: ratio of IC50 values of free Dau and conjugate
Source text: as §1, §2

[5] = tested on: A2058 cells; test: In vitro cytostatic effect, PrestoBlue assay; assay type: cell-based, human
Source text: as §1
(§3) The in vitro cytostatic effect of the Dau–α-MSH conjugate with optimized sequence (Conj4) was investigated and compared with Conj2 by PrestoBlue assay using human melanoma cell cultures with different origins. For determination of the cytostatic effect of the conjugates, the cells were treated with the compounds at 0.003–200 μM concentration range dissolved in the corresponding serum-free medium for 72 h. After the treatment, the PrestoBlue assay (purchased from Invitrogen (Waltham, MA, USA) was carried out to determine the IC50 values of the compounds. Based on the IC50 values, we also determined the targeting index (TI) of the conjugates using the following equation [58]: TI=IC50neg/IC50posconjugate/IC50neg/IC50posfree drug

[6] = tested on: OCM-1 cells; test: In vitro cytostatic effect, PrestoBlue assay; assay type: cell-based, human
Source text: as §1, §3

[7] = tested on: OCM-3 cells; test: In vitro cytostatic effect, PrestoBlue assay; assay type: cell-based, human
Source text: as §1, §3

[8] = tested on: SK-MEL-202 cells; test: In vitro cytostatic effect, PrestoBlue assay; assay type: cell-based, human
Source text: as §1, §3

[9] = tested on: WM983A cells; test: In vitro cytostatic effect, PrestoBlue assay; assay type: cell-based, human
Source text: as §1, §3

[10] = tested on: WM983B cells; test: In vitro cytostatic effect, PrestoBlue assay; assay type: cell-based, human
Source text: as §1, §3

[11] = tested on: healthy male BALB/c mice; test: In vivo acute toxicity study on healthy mice; design: species or system mouse
Procedure: To determine toxicity of conjugates on healthy animals, in vivo acute toxicity study of Dau, Conj2 and Conj4 was performed. In the first experiment, adult BALB/c male mice (29–31 g) were exposed by one injection of the conjugate at the start of experiment, by intraperitoneal (i.p.) administration. A dose of 25 mg Dau content/kg was used, in a volume of 0.1 mL per mice (3 mice per condition). In the second in vivo experiment, NOD-SCID mice were exposed by four injections of the conjugates at the start of experiment, by intraperitoneal (i.p.) administration. Doses of 5, 10 and 15 mg Dau content/kg were used for the toxicity assay, at a volume of 0.1 mL per mice (3 mice per condition). The animals were kept under the conditions as described above.

[12] = tested on: OCM-1 human uveal melanoma tumor in male NOD-SCID mice; test: In vivo tumor growth inhibition, OCM-1 xenograft; design: species or system mouse; settings: for Normalized liver weight, value line 1 / Normalized liver weight, value line 2 / Normalized liver weight, value line 3 / Normalized liver weight, value line 4 / Normalized liver weight, value line 5 / Normalized liver weight, value line 6 / Normalized liver weight, value line 7 / Normalized liver weight, line printed as "ave": Table S2; for Normalized liver weight, value line 1 / Normalized liver weight, value line 2 / Normalized liver weight, value line 3 / Normalized liver weight, value line 4 / Normalized liver weight, value line 5 / Normalized liver weight, value line 6 / Normalized liver weight, value line 7: single animal; for Normalized liver weight, line printed as "ave": value line 8
Procedure: In the next experiment, the murine xenograft melanoma model establishment studies were performed using 8–12-week-old male NOD-SCID mice. For selection of the most suitable tumor model, three cell lines were then inoculated subcutaneously, OCM-1, SK-MEL-202, and WM983A. Cells were injected in a 0.1 mL RPMI-1640 basic medium in a concentration of 1.5·× 10^6 cells/mL, and the tumor growth and weight of mice were monitored 2–3 times per week. Subsequently, the antitumor effects of the Dau–α-MSH conjugates were determined in a mouse xenograft melanoma model selected as described above. Once the tumor volume reached 60 mm^3, mice were randomized and assigned to different groups for each treatment: 0.9% saline as a control, free daunomycin, Conj2 and Conj4. Treatments were injected intraperitoneally every fifth day, three times in total (daunomycin dosage of 5 mg/kg in case of Conj2, 10 mg/kg for Conj4, respectively, which was determined based on the toxicity tests, and 1 mg/kg were used for free drug–MTD). The weight and tumor size of mice were monitored during the whole experiment. On Day 33, mice were euthanized, and the primary tumor, heart, lung, liver, and spleen were harvested and stored in 4% formalin (Molar Chemicals, Halásztelek, Hungary). Liver weight was measured for the calculation of the toxicity of conjugates and daunomycin.

[13] = tested on: subcutaneous B16 murine melanoma in C57BL/6 male mice; test: In vivo antitumor effect, subcutaneous B16 melanoma allograft; settings: conjugates 10 mg Dau content/kg
Procedure: In the first experiment, B16 murine melanoma cells were subcutaneously (s.c.) injected into side of the latero-abdominal region of 35 C57BL/6 male mice (20–28 g), which murine strain is syngeneic for the B16 melanoma tumor cell line [59, 60], 6.5 ×·10^5 cells in a volume of 200 µL M199 medium was inoculated per animal. Mice were randomized in a stratified procedure considering two main factors. The primary factor was to obtain groups with the most equal tumor sizes, the secondary factor was to have groups in which the weight of mice are the most equal. The treatment started 9 days after cell inoculation when average tumor volume was 30 mm^3. Compounds were dissolved in saline solution (Teva, Debrecen, Hungary), and administered via i.p. injection in a volume of 0.1 mL per 10 g of bodyweight. […] Animal weight and tumor volumes were measured initially when the treatment started and at periodic intervals following treatment. A digital caliper was used to measure the longest (a) and the shortest diameter (b) of a given tumor. The tumor volume was calculated using the formula V = ab^2 × π/6, whereby a and b represent the measured parameters (length and width). Termination of the experiment was 20 days after cell inoculation, i.e., 12 days after treatment started, since the average volume of the tumors in the control group reached over 1800 mm^3. The mice from all groups were sacrificed by cervical dislocation after which their tumors were harvested and weighed for antitumor effect assessment. Antitumor effect of treatments was evaluated measuring the tumor volume and calculating the percentage of how much the tumor volume grew in comparison to the starting tumor volume which was set arbitrarily for all tumors as 100% at the start of treatment.

[14] = change compared to control group, minus = inhibition, free Dau 1 mg/kg

CCCC[C@H](NC(=O)[C@H](CO)NC(=O)[C@H](Cc1ccc(O)cc1)NC(=O)[C@H](CO)NC(C)=O)C(=O)N[C@@H](CCC(=O)O)C(=O)N[C@@H](Cc1c[nH]cn1)C(=O)N[C@@H](Cc1ccccc1)C(=O)N[C@@H](CCCNC(=N)N)C(=O)N[C@@H](Cc1c[nH]c2ccccc12)C(=O)NCC(=O)N[C@@H](CCCCNC(=O)CON=C(C)[C@]1(O)Cc2c(O)c3c(c(O)c2[C@@H](O[C@H]2C[C@H](N)[C@H](O)[C@H](C)O2)C1)C(=O)c1c(OC)cccc1C3=O)C(=O)N1CCC[C@H]1C(=O)N[C@H](C(N)=O)C(C)C [Conj2, Ac-SYSNleEHFRWGK(Dau=Aoa)PV-NH2]
Relative Potency [1]: 0.0093
Relative Potency [2]: 0.0125
Relative Potency [3]: 0.0103
Relative Potency [4]: 0.0063
Targeting Index (TI) ([5]; A2058 (reference cell line), TI = (IC50neg/IC50pos conjugate)/(IC50neg/IC50pos free drug)): 1.00
Targeting Index (TI) ([6]; OCM-1 versus A2058, TI = (IC50neg/IC50pos conjugate)/(IC50neg/IC50pos free drug)): 2.30
Targeting Index (TI) ([7]; OCM-3 versus A2058, TI = (IC50neg/IC50pos conjugate)/(IC50neg/IC50pos free drug)): 1.85
Targeting Index (TI) ([8]; SK-MEL-202 versus A2058, TI = (IC50neg/IC50pos conjugate)/(IC50neg/IC50pos free drug)): 2.74
Targeting Index (TI) ([9]; WM983A versus A2058, TI = (IC50neg/IC50pos conjugate)/(IC50neg/IC50pos free drug)): 1.90
Targeting Index (TI) ([10]; WM983B versus A2058, TI = (IC50neg/IC50pos conjugate)/(IC50neg/IC50pos free drug)): 2.61
Changes in bodyweight, liver mass, general appearance and behavior ([11]; after 14 days, one i.p. injection 25 mg Dau content/kg, BALB/c male mice): no significant changes
Acute toxicity ([11]; one i.p. injection, up to 25 mg Dau content/kg, healthy BALB/c male mice, 3 mice, 14 days): does not show acute toxicity
Growth of the tumor reduced to % of the control size ([12]; Day 33, 5 mg/kg Dau content i.p., three treatments (days 15, 19, 23), p: 0.0056): 55%
Normalized liver weight, value line 1 [12]: 3.77%
Normalized liver weight, value line 2 [12]: 5.10%
Normalized liver weight, value line 3 [12]: 4.35%
Normalized liver weight, value line 4 [12]: 4.14%
Normalized liver weight, value line 5 [12]: 4.73%
Normalized liver weight, value line 6 [12]: 4.15%
Normalized liver weight, value line 7 [12]: 4.90%
Normalized liver weight, line printed as "ave" [12]: 4.55%
Tumor growth inhibition based on tumor weight, in comparison to the control group ([13]; after termination (day 20), free Dau 1 mg/kg i.p.): 38.6%
Tumor weigh in % (Table S1) ([13]; change compared to control group, minus = decrease, free Dau 1 mg/kg): -38.6%
Tumor volume in % (Table S1) [13, 14]: -75.4%
Tumor volume in mm3 (Table S1) [13, 14]: -37.8%

CCCC[C@H](NC(C)=O)C(=O)N[C@@H](CCC(=O)O)C(=O)N[C@@H](Cc1c[nH]cn1)C(=O)N[C@H](Cc1ccccc1)C(=O)N[C@@H](CCCNC(=N)N)C(=O)N[C@@H](Cc1c[nH]c2ccccc12)C(=O)NCC(=O)N[C@@H](CCCCNC(=O)CON=C(C)[C@]1(O)Cc2c(O)c3c(c(O)c2[C@@H](O[C@H]2C[C@H](N)[C@H](O)[C@H](C)O2)C1)C(=O)c1c(OC)cccc1C3=O)C(N)=O [Conj4, Ac-NleEHfRWGK(Dau=Aoa)-NH2] (Ac-[Nle]EH[dF]RWGK(Daunorubicin(13-NOCH2CO))-NH2)
IC50 ([5]; A2058, PrestoBlue, 0.003–200 μM in serum-free medium 72 h, mean ± SEM of three independent experiments): 7.15 ± 0.07 µM
IC50 ([6]; OCM-1, PrestoBlue, 0.003–200 μM in serum-free medium 72 h, mean ± SEM of three independent experiments): 29.68 ± 0.06 µM
IC50 ([7]; OCM-3, PrestoBlue, 0.003–200 μM in serum-free medium 72 h, mean ± SEM of three independent experiments): 25.47 ± 0.08 µM
IC50 ([8]; SK-MEL-202, PrestoBlue, 0.003–200 μM in serum-free medium 72 h, mean ± SEM of three independent experiments): 2.06 ± 0.1 µM
IC50 ([9]; WM983A, PrestoBlue, 0.003–200 μM in serum-free medium 72 h, mean ± SEM of three independent experiments): 13.5 ± 0.06 µM
IC50 ([10]; WM983B, PrestoBlue, 0.003–200 μM in serum-free medium 72 h, mean ± SEM of three independent experiments): 10.18 ± 0.06 µM
Normalized liver weight, value line 1 [12]: 5.23%
Normalized liver weight, value line 2 [12]: 4.34%
Normalized liver weight, value line 3 [12]: 4.47%
Normalized liver weight, value line 4 [12]: 4.50%
Normalized liver weight, value line 5 [12]: 5.35%
Normalized liver weight, value line 6 [12]: 4.70%
Normalized liver weight, value line 7 [12]: 5.11%
Normalized liver weight, line printed as "ave" [12]: 4.62%

Source: PMC10816934, “Targeting the Melanocortin 1 Receptor in Melanoma: Biological Activity of α-MSH–Peptide Conjugates” (International Journal of Molecular Sciences, 2024)
